Measured values published in patent publication US20250073249A1, “STEROID COMPOUND, AND PREPARATION METHOD THEREFOR AND USE THEREOF” (SHANGHAI INSTITUTE OF MATERIA MEDICA, CHINESE ACADEMY OF …, priority 2022, published 2025).
Substitutions are numbered along the chain they refer to.

Tests used:
wild-type AR = molecular target: T1, wild-type AR (Homo sapiens, UniProt P10275); assay: Wild-type AR antagonist activity test (luciferase reporter in HEK293 cells); type: cell-based; settings: for IC50: HEK293 cells, luciferase expression, DHT 1.5 nM, 24 hours; for AR antagonist activity, times higher than that of the control enzalutamide: ratio to enzalutamide IC50
T1 construct: expressed in transfected cells; host or cells: HEK293
T1 sequence (P10275 1-920): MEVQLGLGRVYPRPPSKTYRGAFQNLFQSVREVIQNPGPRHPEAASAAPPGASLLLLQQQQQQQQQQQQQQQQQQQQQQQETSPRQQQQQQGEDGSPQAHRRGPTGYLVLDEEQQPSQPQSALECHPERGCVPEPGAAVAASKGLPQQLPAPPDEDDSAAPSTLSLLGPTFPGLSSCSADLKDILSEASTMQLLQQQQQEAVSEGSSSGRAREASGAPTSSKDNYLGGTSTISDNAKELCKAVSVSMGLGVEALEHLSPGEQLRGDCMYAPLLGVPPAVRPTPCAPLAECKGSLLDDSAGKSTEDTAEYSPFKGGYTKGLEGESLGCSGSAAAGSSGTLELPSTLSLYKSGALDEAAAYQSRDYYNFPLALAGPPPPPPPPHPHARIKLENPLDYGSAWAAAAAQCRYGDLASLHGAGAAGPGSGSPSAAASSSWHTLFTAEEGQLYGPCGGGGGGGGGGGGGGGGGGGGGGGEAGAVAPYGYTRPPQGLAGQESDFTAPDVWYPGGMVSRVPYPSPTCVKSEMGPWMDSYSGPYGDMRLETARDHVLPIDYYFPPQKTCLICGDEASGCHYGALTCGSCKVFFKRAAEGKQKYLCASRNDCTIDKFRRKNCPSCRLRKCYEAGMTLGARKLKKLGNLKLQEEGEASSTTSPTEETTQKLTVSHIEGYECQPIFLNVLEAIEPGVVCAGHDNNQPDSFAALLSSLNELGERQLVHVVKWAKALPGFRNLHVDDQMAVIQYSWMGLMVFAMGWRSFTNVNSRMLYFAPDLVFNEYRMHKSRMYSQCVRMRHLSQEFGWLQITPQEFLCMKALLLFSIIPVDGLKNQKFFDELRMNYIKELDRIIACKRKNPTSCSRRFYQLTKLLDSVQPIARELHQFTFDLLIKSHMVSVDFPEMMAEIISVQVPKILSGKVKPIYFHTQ
Description: HEK293 cells were cultured in DMEM containing 10% fetal bovine serum (FBS) at 37° C. with 5% CO2. The cells were then digested with trypsin and counted. A 10 μL/well transfection solution was prepared in opti-MEM containing 5 ng androgen receptor clone, 100 ng pGL4.36 vector, and 315 nL fugene. […] The diluted cell suspension was seeded into 96-well plates at 90 μL (40,000 cells/well), and the plates were incubated for 24 hours. Then, 10 μL of drug solution (including gradient diluted compounds or DMSO) was added, and the plates were incubated for 30 minutes. […] After 24 hours of incubation, 100 μL of Steady-Glo was added to each well of the plate, the plate was shaken at room temperature for 20 minutes, and read on an Envision.

AR = molecular target: T2, AR (Homo sapiens, UniProt P10275, T878A); assay: In vitro AR degradation activity test in LNCaP cells (ELISA, OD450); type: cell-based; settings: for DC50: LNCaP cells, 24 hours; for AR degradation activity, improvement compared to Galeterone: ratio to Galeterone DC50
T2 construct: endogenous in cells; host or cells: LNCaP
T2 sequence (P10275 1-920 T878A): T1 sequence (P10275 1-920) with T878A
In short: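 AR in protein-normalized lysates was quantified by sandwich ELISA with HRP detection at OD450. Degradation rate (%) was computed from OD450 max/min controls, and IC50 was derived from it.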

Cc1cn(C2=CCC3C4CC=C5C[C@@H](NC(=O)c6ccncc6)CC[C@]5(C)C4CC[C@]23C)cn1 (stereo partly drawn) [Compound 14, N-((3S,10R,13S)-10,13-dimethyl-17-(4-methyl-1H-imidazol-1-yl)-2,3,4,7,8,9,10,11,12,13,14,15-dodecahydro-1H-cyclopenta[a]phenanthren-3-yl)isonicotinamide]
IC50 (wild-type AR): 247 nM | AR antagonist activity, times higher than that of the control enzalutamide (wild-type AR): 1.8 times

Cc1cn(C2=CCC3C4CC=C5C[C@@H](NC(=O)c6ccc(F)cc6)CC[C@]5(C)C4CC[C@]23C)cn1 (stereo partly drawn) [Compound 33, N-((3S,10R,13S)-17-(4-methyl-1H-imidazol-1-yl)-10,13-dimethyl-2,3,4,7,8,9,10,11,12,13,14,15-dodecahydro-1H-cyclopenta[a]phenanthren-3-yl)-4-fluorobenzamide]
IC50 (wild-type AR): 120 nM | AR antagonist activity, times higher than that of the control enzalutamide (wild-type AR): 3.6 times | DC50 (AR): 1280 nM | AR degradation activity, improvement compared to Galeterone (AR): 8.1 times

Cc1cn(C2=CCC3C4CC=C5C[C@@H](NC(=O)c6ccc(S(C)(=O)=O)cc6)CC[C@]5(C)C4CC[C@]23C)cn1 (stereo partly drawn) [Compound 35, N-((3S,10R,13S)-17-(4-methyl-1H-imidazol-1-yl)-10,13-dimethyl-2,3,4,7,8,9,10,11,12,13,14,15-dodecahydro-1H-cyclopenta[a]phenanthren-3-yl)-4-(methylsulfonyl)benzamide]
IC50 (wild-type AR): 433 nM | DC50 (AR): 1560 nM | AR degradation activity, improvement compared to Galeterone (AR): 6.7 times

Cc1cn(C2=CCC3C4CC=C5C[C@@H](NC(=O)c6ccc(F)cc6F)CC[C@]5(C)C4CC[C@]23C)cn1 (stereo partly drawn) [Compound 37, N-((3S,10R,13S)-17-(4-methyl-1H-imidazol-1-yl)-10,13-dimethyl-2,3,4,7,8,9,10,11,12,13,14,15-dodecahydro-1H-cyclopenta[a]phenanthren-3-yl)-2,4-difluorobenzamide]
IC50 (wild-type AR): 235 nM | AR antagonist activity, times higher than that of the control enzalutamide (wild-type AR): 1.9 times | DC50 (AR): 1680 nM | AR degradation activity, improvement compared to Galeterone (AR): 6.2 times
